The data set is described as follows: gradient 5% acetonitrile 3 min, to 50% in 2 min, to 85% in 15 min, held 3 min, 100 µL/min. The settings on record: column: Zorbax Extend-C18 2.1 x 50 mm; eluents: water / acetonitrile, 0.1% formic acid. The method, boiled down: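 Mixtures of ~100 pure standards were chromatographed on a Zorbax Extend-C18 column (2.1 × 50 mm, 1.8 μm) at 100 μL/min using water and acetonitrile, each with 0.1% formic acid. Detection used a quadrupole time-of-flight mass spectrometer in positive and negative ionization mode, and data collection spanned 3 months. Retention time was obtained from adduct peaks picked computationally and each checked manually.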
With `CCN(CC)C(=O)c1cc2c(s1)CCC(C(=O)Nc1ccc3c(c1)OCO3)C2` (stereo not drawn), the RP-LC retention time came out at 860 s. As for `COc1ccc(OC)c(NC(=O)Cn2ccc3c(=O)n(C)c(=O)n(C)c32)c1`, the RP-LC retention time came out at 670 s. Then `O=C(CN1C(=O)NC2(CCCCC2)C1=O)Nc1cc(F)cc(F)c1`, with 827 s; and `COc1cc(C)c(C)cc1S(=O)(=O)NCC1(CO)CC1`, with 704 s; and `O=C(NC1CCN(c2cc(-c3ccccc3)[nH]n2)C1)c1ccc(F)c(Cl)c1` (stereo not drawn), with 767 s. The same measure for `COc1ccc(NC(=O)c2cc(NC(=O)C3CCC3)cc3nc(C)ccc23)cc1OC`: 640 s; for `Cc1noc(C)c1S(=O)(=O)N[C@@H]1CN(Cc2ccccc2)C[C@H]1CN(C)C`: 570 s; for `COC(=O)N1CCN(CCNC(=O)NCCCc2ccccc2)CC1`: 559 s. The same measure for `O=C(NCc1ccccc1C(F)(F)F)C1CCN(c2nnc(-c3ccccc3)o2)CC1`: 892 s. `O=C(c1ccc2snnc2c1)N1CCN(c2ccccn2)CC1`: the RP-LC retention time is 576 s. `O=S(=O)(Cc1ccccc1F)N1CCC(c2noc(COCC3CC3)n2)CC1`: the RP-LC retention time is 962 s. As to `CCOc1ccc(CNC(=O)c2cn3cc(Cl)ccc3n2)cc1`, the RP-LC retention time was 863 s.

In turn, `Cc1noc([C@@H]2CC(F)(F)CN2C(=O)c2ccco2)n1` displayed an RP-LC retention time of 706 s. In the case of `O=C(c1cccc(Br)c1)N1CCN(c2cc(-c3ccc(F)cc3)[nH]n2)CC1`, the RP-LC retention time was determined as 864 s. Compound `Cc1cc(C)c2c(N3CCSCC3)nc(C(=O)NCCN3CCCCC3)nc2n1` displayed an RP-LC retention time of 559 s. The compound `Cc1ccc(-n2c(=O)c3c(cc(C)n3C)n(CC(=O)Nc3ccccc3)c2=O)cc1` showed an RP-LC retention time of 834 s.

Consider `CCn1nccc1C(=O)Nc1ccc2c(c1)CCC(=O)N2C`, for which the RP-LC retention time came out at 644 s. With `CC1CCN(c2nc(-c3ccc([N+](=O)[O-])cc3)nc3ccccc23)CC1`, the RP-LC retention time amounted to 1030 s.

Compound `CC(C)C1c2nccn2CCCN1C(=O)c1cc(C2CC2)[nH]n1` (stereo not drawn) returned an RP-LC retention time of 592 s. For the compound `O=C(CC1=NS(=O)(=O)c2ccccc2N1)Nc1ccc(F)cc1F`, the RP-LC retention time worked out at 679 s.

`Fc1ccc(-c2noc(Cc3nnc(-c4cccc(Cl)c4)o3)n2)cc1`: the RP-LC retention time was determined as 1070 s. On to `O=C(NCCS(=O)(=O)N1CCc2ccccc2C1)c1cc(=O)c2ccccc2o1`, for which the RP-LC retention time was 733 s. The same measure for `CCn1cc(C(=O)Nc2cccc(OC)c2)c2cccnc21`: 809 s. The compound `COC(=O)c1[nH]c(C)c(C(=O)CN(CC2CCCO2)C(=O)c2ccc(OC)cc2)c1C` (stereo not drawn) had an RP-LC retention time of 1030 s. Regarding `Cc1ccc(C(=O)N2CCC3(CC2)N=C(c2ccc(Cl)cc2)NO3)s1`, the RP-LC retention time turned out to be 901 s. The same measure for `COc1cc([C@@H]2c3cc4c(cc3[C@H](O)[C@@H](CO)[C@@H]2C(=O)NC2CCCCC2)OCO4)cc(OC)c1OC`: 736 s; for `Cc1cc(NC(=O)CC(=O)Nc2ccc3nc4n(c(=O)c3c2)CCCCC4)no1`: 636 s; for `CCOc1cccc(-c2noc(-c3nnn(Cc4nc(-c5cccc(C)c5)oc4C)c3C)n2)c1`: 1410 s.

As to `O=S(=O)(c1ccc(F)c(F)c1)N1CCc2nc(-c3ccccc3)ncc2C1`, the RP-LC retention time amounted to 1090 s. On to `Cc1ccccc1-c1nc(-c2ccc3nncn3c2)no1`, for which the RP-LC retention time was 872 s. `CC(C)n1c(=O)c(NCc2ccccc2Cl)nc2ccncc21` yielded an RP-LC retention time of 596 s. Then `CC(C)CCN1CCC(N2CCN(C(=O)C3CCCC3)CC2)C1=O` (stereo not drawn), with 585 s; and `Oc1ccc(-c2ccc(F)cc2)cc1CN1CCCCCC1`, with 694 s.

Source of the values: the METLIN SMRT retention time set (Domingo-Almenara et al. 2019).
